According to PubChem BioAssay AID248 (DTP/NCI, 2004):
Several values for one entry are separate records, joined by “and”; a condition that tells them apart may be missing. Equal entries are not always repeated. Toxic doses and inconclusive results are not listed. Cut-off read from the data, not from the text of the source: active = T/C of 150% or more; inactive = T/C below 125%.

Test system: L1210 leukemia ip in BDF1 mice, survival T/C
Assay: NCI In Vivo Anticancer Drug Screen. Data for tumor model L1210 Leukemia (intraperitoneal) in B6D2F1 (BDF1) mice
Conditions: endpoint: mean survival time, higher = longer survival
Method in brief: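 Read-out is survival time, reported as the treated-group measurement over the vehicle-control measurement.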

[1] = dose: 25.0 mg/kg/injection, schedule: Q01DX009 (ip), vehicle: Klucel (hydroxypropylcellulose) (HPC)
[2] = dose: 50.0 mg/kg/injection, schedule: Q01DX009 (ip), vehicle: Klucel (hydroxypropylcellulose) (HPC)
[3] = dose: 100.0 mg/kg/injection, schedule: Q01DX009 (ip), vehicle: Klucel (hydroxypropylcellulose) (HPC)
[4] = dose: 100.0 mg/kg/injection, schedule: Q04DX003 (ip), vehicle: Klucel (hydroxypropylcellulose) (HPC)
[5] = dose: 200.0 mg/kg/injection, schedule: Q04DX003 (ip), vehicle: Klucel (hydroxypropylcellulose) (HPC)
[6] = dose: 400.0 mg/kg/injection, schedule: Q04DX003 (ip), vehicle: Klucel (hydroxypropylcellulose) (HPC)
[7] = dose: 50.0 mg/kg/injection, schedule: Q01DX001 (ip), vehicle: saline
[8] = dose: 100.0 mg/kg/injection, schedule: Q01DX001 (ip), vehicle: saline
[9] = dose: 200.0 mg/kg/injection, schedule: Q01DX001 (ip), vehicle: saline
[10] = dose: 400.0 mg/kg/injection, schedule: Q01DX001 (ip), vehicle: saline
[11] = dose: 50.0 mg/kg/injection, schedule: Q01DX001 (ip), vehicle: carboxymethylcellulose (CMC)
[12] = dose: 100.0 mg/kg/injection, schedule: Q01DX001 (ip), vehicle: carboxymethylcellulose (CMC)
[13] = dose: 100.0 mg/kg/injection, schedule: Q01DX009 (ip), vehicle: saline with Tween-80
[14] = dose: 200.0 mg/kg/injection, schedule: Q01DX009 (ip), vehicle: Klucel (hydroxypropylcellulose) (HPC)
[15] = dose: 200.0 mg/kg/injection, schedule: Q01DX009 (ip), vehicle: saline with Tween-80
[16] = dose: 200.0 mg/kg/injection, schedule: Q04DX003 (ip), vehicle: saline with Tween-80
[17] = dose: 400.0 mg/kg/injection, schedule: Q04DX003 (ip), vehicle: saline with Tween-80
[18] = dose: 400.0 mg/kg/injection, schedule: Q01DX009 (ip), vehicle: Klucel (hydroxypropylcellulose) (HPC)
[19] = dose: 100.0 mg/kg/injection, schedule: Q04DX003 (ip), vehicle: saline with Tween-80

Measured: T/C

O=[N+]([O-])c1cc([N+](=O)[O-])c(NN(c2ccc(Cl)cc2)c2ccc(Cl)cc2)c([N+](=O)[O-])c1
inactive: [1] 96 % of control | [2] 105 % of control | [3] 98 % of control | [4] 98 % of control | [5] 96 % of control | [6] 96 % of control

CCOC(=O)C(Cc1c[nH]c2ccccc12)NC(=O)/C=C/N(CCCl)CCCl (stereo unspecified)
inactive: dose: 10.0 mg/kg/injection, schedule: Q01DX Z (ip), vehicle: other 91 % of control | dose: 20.0 mg/kg/injection, schedule: Q01DX Z (ip), vehicle: other 92 % of control | dose: 40.0 mg/kg/injection, schedule: Q01DX Z (ip), vehicle: other 94 % of control | dose: 80.0 mg/kg/injection, schedule: Q01DX Z (ip), vehicle: other 89 % of control

CC(=O)OC(C)CC1CCCCC12OCCO2 (stereo unspecified)
inactive: [7] 103 % of control | [8] 108 % of control | [9] 100 % of control | [10] 108 % of control

CNC(=O)n1ncnc1N
inactive: dose: 100.0 mg/kg/injection, schedule: Q04DX003 (ip), vehicle: saline 94 % of control | dose: 200.0 mg/kg/injection, schedule: Q04DX003 (ip), vehicle: saline 96 % of control | dose: 400.0 mg/kg/injection, schedule: Q04DX003 (ip), vehicle: saline 97 % of control

CC(=O)NC1(C#N)c2ccccc2-c2ccccc21
inactive: [11] 104 % of control | [12] 104 % of control | dose: 200.0 mg/kg/injection, schedule: Q01DX001 (ip), vehicle: carboxymethylcellulose (CMC) 102 % of control | dose: 400.0 mg/kg/injection, schedule: Q01DX001 (ip), vehicle: carboxymethylcellulose (CMC) 104 % of control

O=C1OC(=O)C2C3C=CC(C3=C(c3ccccc3)c3ccccc3)C12 (stereo unspecified)
inactive: [3] 92 % of control | [13] 97 % of control | [4] 92 % of control | [14] 97 % of control | [15] 100 % of control | [16] 90 % of control | [6] 87 % of control | [17] 92 % of control

[O]=[Sb]([OH])([c]1ccccc1)[c]1ccccc1
inactive: dose: 10.0 mg/kg/injection, schedule: Q01DX001 (ip), vehicle: saline 87 % of control | dose: 20.0 mg/kg/injection, schedule: Q01DX001 (ip), vehicle: saline 91 % of control

CCC1CC2c3cc(OC)c(OC)cc3CCN2CC1(O)c1ccccc1 (stereo unspecified)
inactive: dose: 25.0 mg/kg/injection, schedule: Q01DX001 (ip), vehicle: carboxymethylcellulose (CMC) 92 % of control | dose: 25.0 mg/kg/injection, schedule: Q04DX003 (ip), vehicle: carboxymethylcellulose (CMC) 97 % of control | [11] 95 % of control | dose: 50.0 mg/kg/injection, schedule: Q04DX003 (ip), vehicle: carboxymethylcellulose (CMC) 97 % of control | [12] 103 % of control and 109 % of control | dose: 100.0 mg/kg/injection, schedule: Q04DX003 (ip), vehicle: carboxymethylcellulose (CMC) 100 % of control

O=C(Nc1cccc(C(F)(F)F)c1)Nc1cc([N+](=O)[O-])ccc1Cl
inactive: [2] 96 % of control | [3] 97 % of control and 108 % of control | [14] 89 % of control | [18] 88 % of control

C=CCNC(=O)c1ccccc1O
inactive: dose: 100.0 mg/kg/injection, schedule: Q01DX009 (sc), vehicle: olive oil, sesame oil, peanut oil 101 % of control | dose: 100.0 mg/kg/injection, schedule: Q04DX003 (sc), vehicle: olive oil, sesame oil, peanut oil 91 % of control | dose: 200.0 mg/kg/injection, schedule: Q01DX009 (sc), vehicle: olive oil, sesame oil, peanut oil 101 % of control | dose: 200.0 mg/kg/injection, schedule: Q04DX003 (sc), vehicle: olive oil, sesame oil, peanut oil 100 % of control | dose: 400.0 mg/kg/injection, schedule: Q01DX009 (sc), vehicle: olive oil, sesame oil, peanut oil 94 % of control | dose: 400.0 mg/kg/injection, schedule: Q04DX003 (sc), vehicle: olive oil, sesame oil, peanut oil 91 % of control

O=C1CC(=O)N2C=CC=CC2=N1
inactive: dose: 100.0 mg/kg/injection, schedule: Q01DX009 (ip), vehicle: saline 101 % of control | dose: 200.0 mg/kg/injection, schedule: Q01DX009 (ip), vehicle: saline 95 % of control | dose: 400.0 mg/kg/injection, schedule: Q01DX009 (ip), vehicle: saline 92 % of control

c1ccc2c(c1)NC1(CCCCC1)S2
inactive: [3] 99 % of control | [4] 104 % of control | [14] 99 % of control | [5] 91 % of control | [18] 91 % of control | [6] 93 % of control

N#C/C(=C\C1C(Cl)CCCC1Cl)C1CCC([N+](=O)[O-])CC1 (stereo unspecified)
inactive: dose: 100.0 mg/kg/injection, schedule: Q04DX002 (ip), vehicle: saline with Tween-80 101 % of control | dose: 200.0 mg/kg/injection, schedule: Q04DX002 (ip), vehicle: saline with Tween-80 97 % of control | dose: 400.0 mg/kg/injection, schedule: Q04DX002 (ip), vehicle: saline with Tween-80 101 % of control

COc1cc(C=Nc2ccccc2)cc(OC)c1OC
inactive: [4] 104 % of control | [5] 102 % of control | [6] 95 % of control

Cc1ccc(C)c(NC(=O)N(C2CCCCC2)C2CCCCC2)c1
inactive: [13] 112 % of control | [19] 100 % of control | [15] 101 % of control | [16] 94 % of control | dose: 400.0 mg/kg/injection, schedule: Q01DX009 (ip), vehicle: saline with Tween-80 107 % of control | [17] 97 % of control

NC(=O)NCCc1ccccc1
inactive: [4] 102 % of control | [5] 97 % of control | [6] 102 % of control

CN(CCN1CCCCC1)C(=O)C(c1ccccc1)C1CCCCC1 (stereo unspecified)
inactive: dose: 75.0 mg/kg/injection, schedule: Q01DX001 (ip), vehicle: saline 98 % of control

O=C(O)CCCc1ccc([N+](=O)[O-])cc1Cl
inactive: [13] 103 % of control | [15] 105 % of control

CCC(=O)c1ccc(OCC(O)CN2CCN(c3ccccc3OC)CC2)cc1 (stereo unspecified)
inactive: [19] 96 % of control | [16] 96 % of control | [17] 103 % of control

N#CC(C#N)=c1ccc(=C(C#N)C#N)cc1
inactive: dose: 25.0 mg/kg/injection, schedule: Q01DX009 (ip), vehicle: saline with Tween-80 91 % of control | [7] 94 % of control | dose: 50.0 mg/kg/injection, schedule: Q01DX009 (ip), vehicle: saline with Tween-80 89 % of control | [8] 103 % of control | [13] 91 % of control | [9] 103 % of control

CCCCCCCCCCCCCC[As](=O)(O)CCCCCCCCCCCCCC
inactive: [7] 103 % of control | [8] 101 % of control | [9] 101 % of control | [10] 95 % of control

CC1(C)C(C#N)C(=O)N=C(N)C1C(N)=O (stereo unspecified)
inactive: [1] 94 % of control | [2] 94 % of control | [3] 94 % of control | [4] 92 % of control

COc1ccc([N+](=O)[O-])cc1NC(=O)Nc1nccs1
inactive: [2] 105 % of control | [3] 105 % of control | [14] 101 % of control

COc1ccc(OC)c(NC(=O)N(CCC#N)C2CCCCC2)c1
inactive: [4] 91 % of control | [5] 91 % of control
